PubChem BioAssay AID2060354 (Molecular Pharmacology Branch, DTP, NCI, 2025)

Test system: 519858-162-T-J1-PDC spheroid growth inhibition
Test: Anticancer human tumor 519858-162-T-J1-PDC patient-derived colon adenocarcinoma cell line growth inhibition [TAK]
Conditions: spheroids with HUVEC and MSC; for IC50: curve of first compound; for viability, T/C: stronger effect = lower value
From the text: Combinatorial screen of targeted agents with TAK-243 and ipatasertib in multi-cell type tumor spheroids
A high-throughput screen of multi-cell type tumor spheroids was designed to identify active combinations of targeted small molecules and TAK-243 or ipatasertib. Complex spheroids include a stromal component modeled by human endothelial cells (HUVEC) and fibroblasts modeled by human mesenchymal stem cells (MSCs). The concentration ranges selected for each drug and investigational agent were based upon clinically achievable concentrations if the clinical Cmax of the agent was known.
Compounds. The drugs and investigational agents: TAK-243 (785004), ipatasertib (767898), everolimus (733504), selumetinib (741078), bortezomib (756655), trametinib (758246), ixazomib (758254), vemurafenib (761431), dabrafenib (764134), sapanisertib (764658), alpelisib (765974), and copanlisib (816437), were obtained from the National Cancer Institute (NCI) Developmental Therapeutics Program Chemical Repository. The FDA-approved anticancer drug set is available from the NCI Developmental Therapeutics Program. […] The stock solutions were prepared in dimethyl sulfoxide (DMSO, Sigma-Aldrich, St. Louis, MO, cat. D2650) at 800-fold the tested concentration and stored at -70 degrees C prior to their use. All drugs and investigational agents were tested over a range starting from a high concentration at or near the clinical Cmax and decreasing in half-log increments. If the clinical Cmax for an agent had not been determined, the highest concentration tested was 10 microM.
NCI60 Cell Culture. NCI60 cell lines were obtained from the NCI Developmental Therapeutics Program Tumor Repository. For each lot of cells, the Repository performed Applied Biosystems AmpFLSTR Identifiler testing with PCR amplification to confirm consistency with the published Identifier STR profile for each cell line. Cells were kept in continuous culture for no more than 20 passages. The optimal seeding densities for each of the cell lines at each time point assessed were determined prior to performing the concentration response studies. Briefly, the NCI60 human tumor lines were grown as monolayers in RPMI 1640 medium supplemented with 10% FBS and 2 mmol/L L-glutamine.
An additional 2 lines were from the NCI60 cell line panel including melanomas, MALME-3M and SK-MEL-2. Pooled donor human umbilical vein endothelial cells (HUVEC, Lonza, cat. CC-2519) and human mesenchymal stem cells (hMSC, Lonza, cat. PT-2501) were purchased from Lonza (Walkersville, MD).
PDMR cell lines were grown in complete medium (DC medium): Dulbecco's modified Eagle's medium (DMEM)/F12 supplemented with 5% fetal bovine serum (FBS), 2 mM L-glutamine, 100 U/mL penicillin and 100 µg/ml streptomycin, 0.4 µg/ml hydrocortisone, 10 ng/ml epidermal growth factor (EGF) recombinant human protein, 24 µg/mL adenine, and 0.1 mg/mL primocin. During culture from frozen stock vials, PDMR cells were cultured in the same medium containing 10 µM Y-27632 (see Table 3). The PDCs were cultured in complete DMEM/F12 media without 10 microM Y-27632 dihydrochloride for at least two passages prior to the screen. The pooled donor HUVEC and hMSC were cultured in endothelial cell growth medium 2 (PromoCell, Heidelberg, Germany, cat. C-22011) and mesenchymal stem cell growth medium 2 (PromoCell, cat. C-28009), respectively. For all experiments, HUVEC and hMSC were used at passages </=5.
For the pre-screen, cell seeding densities were determined from a titration spanning the range from 5,000 to 313 cells per well. The mct-spheroids including 60% malignant cells, 25% HUVEC and 15% MSC dispensed as a mixture into U-bottom Ultra-Low Attachment 384-well plates (Corning, NY)
High-throughput Drug Combination Screening.
Prior to their inoculation into 384-well plates, malignant cells, HUVEC, and hMSC were removed from T flasks using TrypLE express (Thermo Fisher Scientific, cat. 12605036) and harvested by centrifugation for 5 min at 233 x g. […]
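Note: spheroids exposed to drugs for 7 days.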

`COC1CC2CCC(C)C(O)(O2)C(=O)C(=O)N2CCCCC2C(=O)OC(C(C)CC2CCC(OCCO)C(OC)C2)CC(=O)C(C)C=C(C)C(O)C(OC)C(=O)C(C)CC(C)C=CC=CC=C1C` (stereo not given) + CC(C)NCC(C(=O)N1CCN(c2ncnc3c2C(C)CC3O)CC1)c1ccc(Cl)cc1 showed an IC50 (second compound 0.3 µM) of over 100 nM, an IC50 (second compound 0.949 µM) of over 100 nM and an IC50 (second compound 3 µM) of over 100 nM. For the same compound, the IC50 (second compound 9.49 µM) was over 100 nM, the IC50 (second compound 30 µM) was over 100 nM and the viability, T/C (second compound 0.3 µM, first compound 0.000316 µM) was 102%. It also gave a viability, T/C (second compound 0.3 µM, first compound 0.001 µM) of 91.5%, a viability, T/C (second compound 0.3 µM, first compound 0.00316 µM) of 89.6% and a viability, T/C (second compound 0.3 µM, first compound 0.01 µM) of 90%. The viability, T/C (second compound 0.3 µM, first compound 0.0316 µM) was 104%, the viability, T/C (second compound 0.3 µM, first compound 0.1 µM) was 84.6% and the viability, T/C (second compound 0.949 µM, first compound 0.000316 µM) was 83.6%. The viability, T/C (second compound 0.949 µM, first compound 0.001 µM) was 87.1%, the viability, T/C (second compound 0.949 µM, first compound 0.00316 µM) was 65.8% and the viability, T/C (second compound 0.949 µM, first compound 0.01 µM) was 85.7%. It also gave a viability, T/C (second compound 0.949 µM, first compound 0.0316 µM) of 85.2%, a viability, T/C (second compound 0.949 µM, first compound 0.1 µM) of 71.6% and a viability, T/C (second compound 3 µM, first compound 0.000316 µM) of 99.2%. For the same compound, the viability, T/C (second compound 3 µM, first compound 0.001 µM) was 68.7%, the viability, T/C (second compound 3 µM, first compound 0.00316 µM) was 85.3% and the viability, T/C (second compound 3 µM, first compound 0.01 µM) was 93.4%. It also gave a viability, T/C (second compound 3 µM, first compound 0.0316 µM) of 85.6%, a viability, T/C (second compound 3 µM, first compound 0.1 µM) of 94.1% and a viability, T/C (second compound 9.49 µM, first compound 0.000316 µM) of 98.9%. For the same compound, the viability, T/C (second compound 9.49 µM, first compound 0.001 µM) was 84.6%, the viability, T/C (second compound 9.49 µM, first compound 0.00316 µM) was 75.6% and the viability, T/C (second compound 9.49 µM, first compound 0.01 µM) was 98%. For the same compound, the viability, T/C (second compound 9.49 µM, first compound 0.0316 µM) was 85.8%, the viability, T/C (second compound 9.49 µM, first compound 0.1 µM) was 73.8% and the viability, T/C (second compound 30 µM, first compound 0.000316 µM) was 90.2%. The viability, T/C (second compound 30 µM, first compound 0.001 µM) was 96.8%, the viability, T/C (second compound 30 µM, first compound 0.00316 µM) was 82.3% and the viability, T/C (second compound 30 µM, first compound 0.01 µM) was 96.8%. For the same compound, the viability, T/C (second compound 30 µM, first compound 0.0316 µM) was 97.3% and the viability, T/C (second compound 30 µM, first compound 0.1 µM) was 72.6%.
